Values of other authors as cited in patent US20050197342A1, “Substituted nitrogen-containing six-membered amino-heterocycles as vanilloid-1 receptor antagonists for treating pain” (priority 2003, published 2005).

Target: VR1 (Rattus norvegicus, UniProt O35433)
Details: Wahl et al., Mol. Pharmacol., 59:9, 2001

VR1, sequence (O35433 whole entry): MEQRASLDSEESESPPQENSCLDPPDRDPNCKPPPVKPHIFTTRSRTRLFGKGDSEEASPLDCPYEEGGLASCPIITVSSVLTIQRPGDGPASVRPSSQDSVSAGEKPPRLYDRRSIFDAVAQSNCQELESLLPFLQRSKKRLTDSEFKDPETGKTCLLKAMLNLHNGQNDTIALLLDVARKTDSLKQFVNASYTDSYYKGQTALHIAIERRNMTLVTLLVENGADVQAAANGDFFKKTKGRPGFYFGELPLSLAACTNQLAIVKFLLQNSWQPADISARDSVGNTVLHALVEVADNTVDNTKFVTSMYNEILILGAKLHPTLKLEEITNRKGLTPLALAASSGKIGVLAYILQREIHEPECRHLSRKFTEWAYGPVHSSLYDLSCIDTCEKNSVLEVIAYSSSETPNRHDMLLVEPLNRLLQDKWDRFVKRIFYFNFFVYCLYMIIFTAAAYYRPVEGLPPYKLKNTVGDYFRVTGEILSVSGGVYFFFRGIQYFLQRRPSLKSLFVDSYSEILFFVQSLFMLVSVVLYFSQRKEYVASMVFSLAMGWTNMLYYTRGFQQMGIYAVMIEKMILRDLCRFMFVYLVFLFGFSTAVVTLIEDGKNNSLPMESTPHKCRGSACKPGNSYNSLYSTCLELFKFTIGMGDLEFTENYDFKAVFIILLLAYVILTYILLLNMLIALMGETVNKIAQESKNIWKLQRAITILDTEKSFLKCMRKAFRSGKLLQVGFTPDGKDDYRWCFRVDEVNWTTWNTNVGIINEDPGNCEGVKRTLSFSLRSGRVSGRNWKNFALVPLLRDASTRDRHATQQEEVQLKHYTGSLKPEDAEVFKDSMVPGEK

SMILES: C=C(C)[C@]12C[C@@H](C)[C@@]34O[C@](Cc5ccccc5)(O[C@@H]1[C@@H]3C=C(COC(=O)Cc1cc(I)c(O)c(OC)c1)C[C@]1(O)C(=O)C(C)=C[C@@H]41)O2 [Iodo-resiniferatoxin]
- antagonist of VR1: nanomolar antagonist
